The source of these data is patent publication US8183364B2, “Substituted porphyrins” (Duke University, priority 2004, dated 2012).

The structures appear in SMILES notation. Where two headings read alike, the source gives them in different places.

A short description of data set [1]: Electrochemistry: cyclic voltammetry of the Mn(III)/Mn(II) redox couple. The data set is classed as physicochemical. The following applies: Mn(III)/Mn(II); 0.1 M NaCl, 0.05 M phosphate buffer, pH 7.8; ±3 mV. As to the method: Electrochemistry. Measurements were performed on a CH Instruments Model 600 Voltammetric Analyzer (Spasojevic and Batinic-Haberle, Inorg. Chim. Acta. 317:230-242 (2001), Batinic-Haberle et al, J. Biol. Chem. 273:24521-24528 (1998), Batinic-Haberle et al, Inorg. Chem. 38:4011-4022 (1999)). A three-electrode system in a small volume cell (0.5 mL to 3 mL), with a 3 mm-diameter glassy carbon button working electrode (Bioanalytical Systems), plus the Ag/AgCl reference and Pt auxiliary electrodes was used. Argon-purged solutions contained 0.05 M phosphate buffer, pH 7.8, 0.1 M NaCl, and 0.5 mM metalloporphyrin. The scan rates were 0.01-0.5 V/s, typically 0.1 V/s. The potentials were standardized against the potassium ferrocyanide/ferricyanide (Kolthof and Tomsicek, J. Phys. Chem. 39:945 (1935)) and/or against MnTE-2-PyP^5+ (Spasojevic and Batinic-Haberle, Inorg. Chim. Acta. 317:230-242 (2001), Batinic-Haberle et al, J. Biol. Chem. 273:24521-24528 (1998), Batinic-Haberle et al, Inorg. Chem. 38:4011-4022 (1999)).
Electrochemistry. All cyclic voltammograms, ascribed to the Mn(III)/Mn(II) redox couple, are reversible. The E1/2 of di-ortho ethylimidazolylporphyrin, MnTDE-2-ImP^5+ is 118 mV more positive than of ortho ethylpyridylporphyrin, MnTE-2-PyP^5+ (+228 mV vs NHE), as a consequence of charge delocalization. A similar difference of 114 mV was seen between their methoxyethyl analogues. Mn porphyrins bearing N-pyridyl substituents of the same length, MnTnBu-PyP^5+ and MnTMOE-2-PyP^5+, have nearly identical E1/2 of +254 and +251 mV vs NHE, which is 26 and 23 mV higher than that of MnTE-PyP^5+.

Data set [2] in a line: Oxidative degradation in the presence of ascorbic acid under aerobic conditions. The class given is physicochemical. The following applies: pH 7.8 (0.05 M tris buffer). As to the method:
Under these conditions porphyrins underwent oxidative degradation. As previously observed (Batinic-Haberle et al, J. Chem. Soc., Dalton Trans., pgs. 2689-2696 (2002)), those porphyrins that are of more positive E1/2 are stabilized in +2 oxidation state and are less prone to oxidative damage. Accordingly, 27% and 24% of MnTE-2-PyP^5+ and MnTMOE-2-PyP^5+ undergo degradation within 2 hours, but only 2% of MnTM,MOE-2-ImP^5+ and MnTDMOE-2-ImP^5+ and 3% of MnTDE-2-ImP^5+.

Data set [3] is described as follows: Thin-layer chromatography on silica gel (retention factor Rf, lipophilicity). The data set is classed as physicochemical. The following applies: silica gel TLC, KNO3-saturated H2O/H2O/acetonitrile = 1/1/8. On the procedure: Uv/vis spectra of porphyrin ligands and their Mn complexes were taken on a Shimadzu UV-2501-PC spectrophotometer at 25° C. Thin-layer chromatography of ligands and Mn complexes was done using silica gel plates with KNO3satH2O/H2O/acetonitrile=1/1/8.
Thin-layer chromatography. All new methoxyporphyrins are more lipophilic than MnTE-2-PyP^5+ and MnTDE-2-ImP^5+.

The nature of data set [4]: Catalysis of O2.^− dismutation by pulse radiolysis. The class given is biochemical. The conditions noted are these: pulse radiolysis, pH 7.8, (22 ± 1) °C; kcat ±30%. On the procedure: Catalysis of O2.^− dismutation. The catalytic rate constants for the O2.^− dismutation were determined by pulse radiolysis in 0.05 M phosphate buffer (pH 7.8) at (22±1)° C. as previously described (Batinic-Haberle et al, Inorg. Chem. 40:726 (2001)). In the present study 10 mM formate was used as a scavenger for H. atoms and .OH radicals, which leads first to production of CO2.^− radicals and then to O2.^− radicals. This system is known to lead to conversion of all primary radicals of water radiolysis into O2.^−.
Catalysis of O2.^− dismutation. Pulse radiolysis was used to assess the SOD-like activities of the Mn porphyrins studied. The initial concentration of O2.^− produced by the pulse was about 27 μM, and the concentration of the Mn porphyrin was between 0.5 and 5 μM. The dismutation of O2.^− was followed at 280 nm. The catalytic rate constant was determined from the linear dependence of kobs upon the concentration of the catalyst (Batinic-Haberle et al, Inorg. Chem. 40:726 (2001)). All the new compounds have high O2.^− dismuting ability. The magnitude of the catalysis is due to the interplay of the electron-withdrawing effects of quaternized ortho pyridyl or di-ortho imidazolyl groups, favorable electrostatics, and the solvation of the metal site.

Another data set has as its system wild type AB1157 E. coli. Put plainly: Aerobic growth of wild type E. coli (toxicity). The class given is cell-based. The following applies: separate experiment. As to the method:
(§1) Aerobic growth of E. coli. Bacterial strains of E. coli used were wild type AB1157 (F-thr-1 leu-1 proA2 his-4 argE3 thr-1 lacY1 galK2 rpsL supE44 ara-14 xyl-15 mtl-1 tsx-33) and SOD-deficient JI132 (same as AB1157 plus (sodA::mudPR13)25 (sodB-kan)1-Δ2. Culture media were prepared as follows. M9 medium: 6 g/L Na2HPO4, 3 g/L KH2PO4, 0.5 g/L NaCl, 1 g/L NH4Cl, 2 mM MgSO4, 0.1 mM CaCl2, adjusted to pH 7.4 with NaOH, and supplemented with 0.2% glucose, 3 mg/L each of D-panthotenic acid and thiamine. M9CA medium contained M9 medium plus 0.2% casamino acids. 5-amino acid (5AA) minimal medium contained M9 medium plus 0.5 mM each of threonine, leucine, histidine, proline and arginine (Faulkner et al, J. Biocl. Chem. 269:23471 (1994)).
(§2) AB 1157 and 31132 were precultured overnight aerobically in M9CA medium at 37° C. and were then diluted to 3×10^7 cells/mL into 5 mL M9CA medium. JI132 was precultured in the presence of 20 μg/mL chloramphenicol and 500 μg/mL kanamycin. When the cells are transferred from M9CA medium to 5AA minimal medium cultures were first centrifuged and washed twice with the 5AA medium before final dilution in it. The centrifugation was conducted at room temperature to avoid temperature shocks. Cultures without and with Mn porphyrins (0.1 to 30 μM) were grown aerobically in 5 mL volume in test tubes in a thermostated orbital shaker (45° angle, 200 rpm) at 37° C.). Rates of growth were followed turbidimetrically at 700 nm to minimize interference from the absorbance of test compounds.

The conditions of data set [5]: pH 7.8, (22 ± 1) °C; data from Batinic-Haberle et al 2002 (MnTE-2-PyP: Inorg. Chem. 40:726 (2001)); cited from earlier work.
The conditions of data set [6]: Mn(III)/Mn(II); 0.1 M NaCl, 0.05 M phosphate buffer, pH 7.8; data from Batinic-Haberle et al 2002; cited from earlier work.
The subject of data set [7] is SOD-deficient JI132 E. coli. Nature of the data set: Aerobic growth of SOD-deficient E. coli. The following applies: for aerobic growth of SOD-deficient E. coli: 5AA minimal medium, 25 μM; for protection of SOD-deficient E. coli / facilitation of aerobic growth of SOD-deficient E. coli, dependence on concentration: M9CA medium; for facilitation of aerobic growth of SOD-deficient E. coli, dependence on concentration: 1-30 μM. The class given is cell-based. As to the method:
as §1, §2

For data set [8] the following is noted: data from Batinic-Haberle et al 2002, cited from earlier work; for Rf (compound path/solvent path), metal-free porphyrin (in parenthesis): metal-free ligand of the named Mn porphyrin; for Rf (compound path/solvent path), Mn complex: silica gel TLC, KNO3-saturated H2O/H2O/acetonitrile = 1/1/8.

Consider `COCCn1cc[n+](C)c1-c1c2nc(c(-c3n(CCOC)cc[n+]3C)c3ccc([n-]3)c(-c3n(CCOC)cc[n+]3C)c3nc(c(-c4n(CCOC)cc[n+]4C)c4ccc1[n-]4)C=C3)C=C2.[Mn+3]` [MnTM,MOE-2-ImP^5+, Mn(III) tetrakis 5,10,15,20-tetrakis[N-methyl-N′-(2-methoxyethyl)imidazolium-2-yl]porphyrin], for which the “Metal-centered redox potential E1/2” value in [1] is “+356 mV vs NHE”. The “degradation within 2 hours” value in data set [2] is 2%. For the same molecule, in data set [3] (metal-free ligand of the named Mn porphyrin), the “Rf (compound path/solvent path), metal-free porphyrin (in parenthesis)” value came out at 0.17. Further, the “Rf (compound path/solvent path), Mn complex” value in data set [3] is listed as 0.15. In addition, the “log kcat for O2^− dismutation” value in data set [4] worked out at 7.98.

For `CCCCCCCC[n+]1ccccc1-c1c2nc(c(-c3cccc[n+]3CCCCCCCC)c3ccc([nH]3)c(-c3cccc[n+]3CCCCCCCC)c3nc(c(-c4cccc[n+]4CCCCCCCC)c4ccc1[nH]4)C=C3)C=C2` [metal-free n-octyl], the “toxicity of metal-free vs Mn(III) complex” value in the data set with wild type AB1157 E. coli was “equally toxic”.

As to `C[n+]1ccccc1-c1c2nc(c(-c3cccc[n+]3C)c3ccc([n-]3)c(-c3cccc[n+]3C)c3nc(c(-c4cccc[n+]4C)c4ccc1[n-]4)C=C3)C=C2.[Mn+3]` [MnTM-2-PyP^5+], the “log kcat for O2^− dismutation” value in data set [5] is given as 7.79. In data set [6], the “Metal-centered redox potential E1/2” value is given as “+220 mV vs NHE”. Besides, in [7], the “aerobic growth of SOD-deficient E. coli” value was “not far behind” and the “facilitation of aerobic growth of SOD-deficient E. coli, dependence on concentration” value is on record as “concentration-dependent manner”. Also, in data set [7] (1 μM), the “protection of SOD-deficient E. coli” value is recorded as “low protection”. The “protection of SOD-deficient E. coli” value in [7] (30 μM) is “either much higher or near full protection”. In addition, in [8], the “Rf (compound path/solvent path), metal-free porphyrin (in parenthesis)” value is reported as 0.13 and the “Rf (compound path/solvent path), Mn complex” value was 0.09.

With `CCC[n+]1ccccc1-c1c2nc(c(-c3cccc[n+]3CCC)c3ccc([n-]3)c(-c3cccc[n+]3CCC)c3nc(c(-c4cccc[n+]4CCC)c4ccc1[n-]4)C=C3)C=C2.[Mn+3]` [MnTnPr-2-PyP^5+], the “log kcat for O2^− dismutation” value in data set [5] was 7.38. Moreover, the “Metal-centered redox potential E1/2” value in data set [6] is “+238 mV vs NHE”. For the same molecule, in [7], the “aerobic growth of SOD-deficient E. coli” value is “most effective” and the “facilitation of aerobic growth of SOD-deficient E. coli, dependence on concentration” value is on record as “concentration-dependent manner”. Besides, the “protection of SOD-deficient E. coli” value in data set [7] (1 μM) is recorded as “low protection”. Moreover, the “protection of SOD-deficient E. coli” value in [7] (30 μM) was “either much higher or near full protection”. In addition, in data set [8], the “Rf (compound path/solvent path), metal-free porphyrin (in parenthesis)” value is on record as 0.31 and the “Rf (compound path/solvent path), Mn complex” value is recorded as 0.20.
